Assay results as given in PubChem BioAssay AID2060609 (Molecular Pharmacology Branch, DTP, NCI, 2025).
pIC50: −log10 of the molar value. Values joined by “and” are separate entries in the source; they are usually repeats but may differ in a detail not shown here. Equal entries are not always repeated.

Tested on: 855422-203-R-J1-PDC complex spheroids, viability
Assay: Anticancer human tumor 855422-203-R-J1-PDC patient-derived bladder carcinoma cell line growth inhibition [CLK]
Conditions: for viability, T/C: stronger effect = lower value
Text: A high-throughput screen of multi-cell type tumor spheroids was designed to identify active combinations of […] and targeted small molecules. Complex spheroids include a stromal component modeled by human endothelial cells (HUVEC) and fibroblasts modeled by human mesenchymal stem cells (MSCs). The concentration ranges selected for each drug and investigational agent were based upon clinically achievable concentrations if the clinical Cmax of the agent was known.
Compounds. The drugs and investigational agents: cirtuvivint (SM08502; NSC835563), CC-671 (NSC850746), vemurafenib (NSC761431), tapotoclax (NSC804041), sotorasib (NSC818433), adagrasib (NSC831453), MRTX-1133 (NSC836407), BAY2416964 (NSC825713), copanlisib (NSC816437), inavolisib (NSC800729), abemaciclib (NSC768073), osimertinib (NSC779217), entinostat (NSC756642), eltanexor (KPT-8602, NSC794443), venetoclax (NSC766270), ceralasertib (NSC777638), bortezomib (NSC756655), olaparib (NSC753686), talazoparib (NSC767125), alisertib (NSC759677), peposertib (NSC802822), gemcitabine (NSC613327), 5-fluorouracil (NSC19893), SN-38 (NSC673596), oxaliplatin (NSC266046), paclitaxel (NSC125973), and doxorubicin (NSC123127), were obtained from the National Cancer Institute (NCI) Developmental Therapeutics Program Chemical Repository. The FDA-approved anticancer drug set is available from the Developmental Therapeutics Program at https://dtp.cancer.gov/organization/dscb/obtaining/available plates.htm. […] The stock solutions were prepared in dimethyl sulfoxide (DMSO, Sigma-Aldrich, St. Louis, MO, cat. D2650), except for the platinum complexes which were prepared in saline (Quality Biological, Gaithersburg, MD, cat. 114-055-101), at 800-fold the tested concentration and stored at -70 degrees C prior to their use. All drugs and investigational agents were tested over a range starting from a high concentration at or near the clinical Cmax and decreasing in half-log increments. If the clinical Cmax for an agent had not been determined, the highest concentration tested was 10 microM.
Cell Culture. All cells were maintained in an incubator at 37 degrees C and 5% CO2 with 95% humidity. The PDC lines were cultured according to standard operating procedures established by the NCI PDMR. Briefly, all PDCs were thawed and cultured in Matrigel-coated flasks prepared with a working solution of 1X Ham's F-12 nutrient mix, without supplementation (Invitrogen, Waltham, MA, cat. 11765054), 100 U/mL penicillin-streptomycin (Invitrogen, cat. 15140122), and 2.5% Matrigel (Corning Inc., Corning, NY, cat. 354248) for the first three passages. The 947758-054-R-J2-PDC line was cultured in 6B/Colon 1A media, which includes advanced DMEM/F-12 (Thermo Fisher Scientific, cat. 12634028), 10 mM HEPES (Thermo Fisher Scientific, cat. 15630080), 1X GlutaMAX supplement (Thermo Fisher Scientific, cat. 35050061), 0.1 mg/mL primocin (InvivoGen, cat. ant-pm-2), 10% defined fetal bovine serum, heat inactivated (HyClone Laboratories Inc., cat. SH30070.03HI), 1.25 mM N-Acetyl-L-cysteine (Sigma-Aldrich, cat. A9165), 10 mM nicotinamide (Sigma-Aldrich, cat. N0636), 1X B-27 supplement (Thermo Fisher Scientific, cat. 17504044), 1X N-2 supplement (Thermo Fisher Scientific, cat. 17502048), and 10 microM Y-27632 dihydrochloride (Tocris Bioscience, cat. 1254). The 876862-298-R-J1-PDC was cultured in 6E media, which includes all 6B/Colon 1A media components plus 50% L-WRN conditioned media (ATCC, cat. CRL-3276), 50 ng/mL recombinant human EGF recombinant protein (hEGF; Thermo Fisher Scientific, cat. PHG0311), 10 ng/mL recombinant human fibroblast growth factor 10 (hGFG-10; PeproTech, cat. 100-26), 1 ng/mL recombinant human fibroblast growth factor 2 (hFGF-2; PeproTech, cat. 100-18B), and 1 µM prostaglandin E2 (PGE2; Tocris, cat. 2296). The 227483-062-R1-J1-PDC line was cultured in Panc media, containing all 6E components except hFGF-2, with the addition of 500 nM SB-431542 (Selleckchem, cat. S1067) and 10 nM gastrin (Tocris, cat. 3006). […]

[1] = curve of first compound, second compound 0.0316 µM
[2] = curve of first compound, second compound 0.1 µM
[3] = curve of first compound, second compound 0.316 µM
[4] = curve of first compound, second compound 1 µM
[5] = curve of first compound, second compound 3.16 µM
[6] = curve of first compound, second compound 10 µM
[7] = second compound 0.0316 µM, first compound 0.0316 µM
[8] = second compound 0.0316 µM, first compound 0.1 µM
[9] = second compound 0.0316 µM, first compound 0.316 µM
[10] = second compound 0.0316 µM, first compound 1 µM
[11] = second compound 0.0316 µM, first compound 3.16 µM
[12] = second compound 0.0316 µM, first compound 10 µM
[13] = second compound 0.1 µM, first compound 0.0316 µM
[14] = second compound 0.1 µM, first compound 0.1 µM
[15] = second compound 0.1 µM, first compound 0.316 µM
[16] = second compound 0.1 µM, first compound 1 µM
[17] = second compound 0.1 µM, first compound 3.16 µM
[18] = second compound 0.1 µM, first compound 10 µM
[19] = second compound 0.316 µM, first compound 0.0316 µM
[20] = second compound 0.316 µM, first compound 0.1 µM
[21] = second compound 0.316 µM, first compound 0.316 µM
[22] = second compound 0.316 µM, first compound 1 µM
[23] = second compound 0.316 µM, first compound 3.16 µM
[24] = second compound 0.316 µM, first compound 10 µM
[25] = second compound 1 µM, first compound 0.0316 µM
[26] = second compound 1 µM, first compound 0.1 µM
[27] = second compound 1 µM, first compound 0.316 µM
[28] = second compound 1 µM, first compound 1 µM
[29] = second compound 1 µM, first compound 3.16 µM
[30] = second compound 1 µM, first compound 10 µM
[31] = second compound 3.16 µM, first compound 0.0316 µM
[32] = second compound 3.16 µM, first compound 0.1 µM
[33] = second compound 3.16 µM, first compound 0.316 µM
[34] = second compound 3.16 µM, first compound 1 µM
[35] = second compound 3.16 µM, first compound 3.16 µM
[36] = second compound 3.16 µM, first compound 10 µM
[37] = second compound 10 µM, first compound 0.0316 µM
[38] = second compound 10 µM, first compound 0.1 µM
[39] = second compound 10 µM, first compound 0.316 µM
[40] = second compound 10 µM, first compound 1 µM
[41] = second compound 10 µM, first compound 3.16 µM
[42] = second compound 10 µM, first compound 10 µM
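Note: spheroids exposed to drugs for seven days before readout.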
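Throughout, for viability, T/C: 100% = DMSO vehicle control wells.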

## C#Cc1c(F)ccc2cc(O)cc(-c3ncc4c(N5CC6CCC(C5)N6)nc(OCC56CCCN5CC(F)C6)nc4c3F)c12 (stereo unspecified) + CNC(=O)c1ccc(Nc2nc(OC3CCCC3)c3c(-c4ccc5nc(C)oc5c4)c[nH]c3n2)c(OC)c1
[1]
  pIC50: < 5.00
[2]
  pIC50: 6.41
[3]
  pIC50: > 7.50
[4]
  pIC50: > 7.50
[5]
  pIC50: > 7.50
[6]
  pIC50: > 7.50
[7]
  viability, T/C: 95.4%
[8]
  viability, T/C: 111%
[9]
  viability, T/C: 100%
[10]
  viability, T/C: 87.2%
[11]
  viability, T/C: 132%
[12]
  viability, T/C: 84.9%
[13]
  viability, T/C: 60.2%
[14]
  viability, T/C: 51.1%
[15]
  viability, T/C: 56.7%
[16]
  viability, T/C: 39.6%
[17]
  viability, T/C: 32.7%
[18]
  viability, T/C: 22%
[19]
  viability, T/C: 21.2%
[20]
  viability, T/C: 24.9%
[21]
  viability, T/C: 24.8%
[22]
  viability, T/C: 22.9%
[23]
  viability, T/C: 24.3%
[24]
  viability, T/C: 21.8%
[25]
  viability, T/C: 19.8%
[26]
  viability, T/C: 21.5%
[27]
  viability, T/C: 19.5%
[28]
  viability, T/C: 22.1%
[29]
  viability, T/C: 23.2%
[30]
  viability, T/C: 19.3%
[31]
  viability, T/C: 20.6%
[32]
  viability, T/C: 18.1%
[33]
  viability, T/C: 17.3%
[34]
  viability, T/C: 22%
[35]
  viability, T/C: 25.4%
[36]
  viability, T/C: 13.3%
[37]
  viability, T/C: 21.8%
[38]
  viability, T/C: 22.4%
[39]
  viability, T/C: 24.1%
[40]
  viability, T/C: 18.9%
[41]
  viability, T/C: 17.3%
[42]
  viability, T/C: 14.8%

## Nc1ccn(C2OC(CO)C(O)C2(F)F)c(=O)n1 (stereo unspecified) + CN1CCN(c2cc(C(=O)Nc3cc4cc(-c5cnn(C)c5)ccc4cn3)ccn2)CC1
[1]
  pIC50: > 7.50
[2]
  pIC50: > 7.50
[3]
  pIC50: > 7.50
[4]
  pIC50: > 7.50
[5]
  pIC50: > 7.50
[6]
  pIC50: > 7.50
[7]
  viability, T/C: 27.6%
[8]
  viability, T/C: 15.1%
[9]
  viability, T/C: 15.8%
[10]
  viability, T/C: 11.4%
[11]
  viability, T/C: 9.09%
[12]
  viability, T/C: 6.12%
[13]
  viability, T/C: 24.4%
[14]
  viability, T/C: 15.4%
[15]
  viability, T/C: 11.5%
[16]
  viability, T/C: 11.9%
[17]
  viability, T/C: 5.33%
[18]
  viability, T/C: 4.86%
[19]
  viability, T/C: 4.07%
[20]
  viability, T/C: 3.72%
[21]
  viability, T/C: 4.47%
[22]
  viability, T/C: 2.24%
[23]
  viability, T/C: 1.5%
[24]
  viability, T/C: 0.93%
[25]
  viability, T/C: 1.32%
[26]
  viability, T/C: 0.15%
[27]
  viability, T/C: 2.17%
[28]
  viability, T/C: 0.1%
[29]
  viability, T/C: 0.13%
[30]
  viability, T/C: 0.13%
[31]
  viability, T/C: 0.98%
[32]
  viability, T/C: 3.09%
[33]
  viability, T/C: 0.39%
[34]
  viability, T/C: 0.24%
[35]
  viability, T/C: 1.1%
[36]
  viability, T/C: 0.29%
[37]
  viability, T/C: 0.28%
[38]
  viability, T/C: 0.41%
[39]
  viability, T/C: 0.24%
[40]
  viability, T/C: 0.83%
[41]
  viability, T/C: 0.25%
[42]
  viability, T/C: 0.23%

## CCN1CCN(Cc2ccc(Nc3ncc(F)c(-c4cc(F)c5nc(C)n(C(C)C)c5c4)n3)nc2)CC1
Compound 0.00316 µM
  viability, T/C: 99.2% and 123%
Compound 0.01 µM
  viability, T/C: 85.2% and 96.2%
Compound 0.0316 µM
  viability, T/C: 79.4% and 92.5%
Compound 0.1 µM
  viability, T/C: 55.2% and 50%
Compound 0.316 µM
  viability, T/C: 50.4% and 57.6%
Compound 1 µM
  viability, T/C: 62.8% and 49.6%
Curve of compound
  pIC50: < 6.00 and 6.11
